Where two headings read alike, the source gives them in different places.
Key:
Type in all cases: cell-based
[1] = test system: PD1-ss+10aa/Gaussia Luciferase; test: Dox-Induced PD1-ss-Gluc Assay
Procedure, shortened: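 Compounds, diluted in DMSO/media with doxycycline, were added to cells plated a day earlier and kept at 37° C under 5% CO2. The cells stably express a Gaussia luciferase construct fused to PD1-ss+10aa, induced via the T-REx system. Unassigned stereochemistry means mixture data.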

[2] = test system: TNFα-FL/Gaussia Luciferase; test: Dox Induced TNFα-FL-Gluc Assay
Procedure, shortened: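 Compounds were added in doxycycline-containing DMSO/media to cells plated the previous day and incubated at 37° C under 5% CO2. These cells stably express a TNFα-FL/Gaussia luciferase cDNA whose expression is under T-REx (Dox-inducible) control, selected with Hygromycin and Blasticidin.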

[3] = test system: HER3-ss+4aa/Gaussia Luciferase; test: Dox-Induced Her3-ss-Gluc Assay
Procedure, shortened: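 Compounds, diluted in DMSO/media containing doxycycline, were incubated at 37° C., 5% CO2 with cells seeded one day earlier. The cells stably express HER3-ss+4aa/Gaussia luciferase under T-REx control. Where no stereochemistry is shown, data refer to the mixture of stereoisomers.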

[4] = test system: IL-2-FL/Gaussia Luciferase; test: Dox Induced IL2-FL-Gluc Assay
Procedure, shortened: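 Compounds were added together with doxycycline in DMSO/media and incubated at 37° C., 5% CO2. The cells were a stably selected line carrying IL-2-FL/Gaussia luciferase under T-REx inducible control. Structures drawn without stereochemistry were tested as stereoisomer mixtures.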

[5] = test system: human multiple myeloma cell line NCI-H929; test: H929 Cell Viability Assay; details: 48 hr, NCI-H929 cells, Celltiter-Glo, read-out: 48 hr H929 Viability Celltiter-Glo: Mean EC50
Description: Plates were incubated at 37° C., 5% CO2 for 48 hours. After 48 hours, Celltiter-Glo® (Promega) was added to each well and luciferase signal was quantified using Tecan Infinite M1000 Pro for cell viability determination.
For chemical structures that include one or more stereoisomers, but are illustrated without indicating stereochemistry, the assay data refers to a mixture of stereoisomers.

[6] = test system: human multiple myeloma cell line U266B1; test: U266 Cell Viability Assay; details: U-266, 48 hr, U266B1 cells, Celltiter-Glo, read-out: 48 hr U266 Viability Celltiter-Glo: Mean EC50
Procedure, shortened: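 Viability measured by CellTiter-Glo luciferase signal after 48 h compound exposure (37 °C, 5% CO2) of U266B1 cells in 384-well format. Where stereochemistry is not shown, data refer to the stereoisomer mixture.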

[7] = 24 hr doxycycline induction, 293FRT/TO cells, Gaussia luciferase signal; read-out: 24 hr Dox Inducible PD1ssGluc 293FRT/TO: Mean IC50
[8] = 24 hr doxycycline induction, 293FRT/TO cells, Gaussia luciferase signal; read-out: 24 hr Dox Inducible TNFaFLGluc 293FRT/TO: Mean IC50
[9] = 24 hr doxycycline induction, 293FRT/TO cells, Gaussia luciferase signal; read-out: 24 hr Dox Inducible Her3(ss + 4)Gluc 293FRT/TO: Mean IC50
[10] = 24 hr doxycycline induction, 293FRT/TO cells, Gaussia luciferase signal; read-out: 24 hr Dox Inducible IL2FLGIuc 293FRT/TO: Mean IC50
[11] = 24 hr, doxycycline-induced, 293FRT/TO cells; read-out: 24 hr Dox Inducible PD1ssGluc 293FRT/TO: Mean IC50
[12] = 24 hr, doxycycline-induced, 293FRT/TO cells; read-out: 24 hr Dox Inducible TNFaFLGluc 293FRT/TO: Mean IC50
[13] = 24 hr, doxycycline-induced, 293FRT/TO cells; read-out: 24 hr Dox Inducible Her3(ss + 4)Gluc 293FRT/TO: Mean IC50
[14] = 24 hr, doxycycline-induced, 293FRT/TO cells; read-out: 24 hr Dox Inducible IL2FLGIuc 293FRT/TO: Mean IC50

Row | IC50 [1, 7] | IC50 [2, 8] | IC50 [3, 9] | IC50 [4, 10] | EC50 [5] | EC50 [6] | IC50 [1, 11] | IC50 [2, 12] | IC50 [3, 13] | IC50 [4, 14] | SMILES | IC50 ([1]; read-out: 24 hr Dox Inducible PD1ssGluc 293FRT/TO: Mean IC50; 24 hr, doxycycline-induced, 293FRT/TO cells) | IC50 ([2]; read-out: 24 hr Dox Inducible TNFaFLGluc 293FRT/TO: Mean IC50; 24 hr, doxycycline-induced, 293FRT/TO cells) | IC50 ([3]; read-out: 24 hr Dox Inducible Her3(ss + 4)Gluc 293FRT/TO: Mean IC50; 24 hr, doxycycline-induced, 293FRT/TO cells) | IC50 ([4]; read-out: 24 hr Dox Inducible IL2FLGIuc 293FRT/TO: Mean IC50; 24 hr, doxycycline-induced, 293FRT/TO cells)
1 | 2250 nM | > 25000 nM | 2020 nM | > 25000 nM | > 25000 nM | > 25000 nM |  |  |  |  | O=C(Nc1nc(N2CCC(c3ccccc3)CC2)cs1)c1cccn1Cc1ccncc1 [Compound A261] |  |  |  | 
2 | 918 nM | > 25000 nM | 5280 nM | 6720 nM | > 25000 nM | 22500 nM |  |  |  |  | O=C(Nc1nc([C@@H]2CCN(Cc3ccccc3)C2)cs1)c1cccn1Cc1ccncc1 [Compound A291] |  |  |  | 
3 | 51 nM | 1740 nM | 259 nM | 374 nM | 9100 nM | > 25000 nM |  |  |  |  | COc1ccc(/C=C/c2csc(NC(=O)c3cccn3Cc3ccncc3)n2)cc1 [Compound A160, N-(4-(4-methoxystyryl)thiazol-2-yl)-1-(pyridin-4-ylmethyl)-1H-pyrrole-2-carboxamide] |  |  |  | 
4 | > 25000 nM | > 25000 nM | > 25000 nM | > 25000 nM | 19500 nM | > 25000 nM |  |  |  |  | CC(C)OC(C)(C)c1csc(NC(=O)c2cc(C(N)=O)cn2Cc2ccncc2)n1 [Compound A109, N2-(4-(2-isopropoxypropan-2-yl)thiazol-2-yl)-1-(pyridin-4-ylmethyl)-1H-pyrrole-2,4-dicarboxamide] |  |  |  | 
5 | > 25000 nM | > 25000 nM | > 25000 nM | > 25000 nM | > 25000 nM | > 25000 nM |  |  |  |  | CC(C)OC(C)(C)c1csc(NC(=O)c2cccn2C/C=C/c2ccncc2)n1 [Compound A221, N-(4-(2-isopropoxypropan-2-yl)thiazol-2-yl)-1-(3-(pyridin-4-yl)allyl)-1H-pyrrole-2-carboxamide] |  |  |  | 
6 | 259 nM | 3680 nM | 590 nM | 502 nM | > 25000 nM | > 25000 nM |  |  |  |  | CC(c1ccccc1)c1csc(NC(=O)c2cccn2Cc2ccncc2)n1 (stereo not drawn) [Compound A21] |  |  |  | 
7 |  |  |  |  | 720 nM | > 25000 nM | 11 nM | 100 nM | 22 nM | 23 nM | CO[C@@H]1CCN(c2ccccc2)C1c1csc(NC(=O)c2cccn2Cc2ccncc2)n1 (stereo partly drawn) [Compound A345] |  |  |  | 
8 |  |  |  |  | 6110 nM | 14800 nM | 24 nM | 721 nM | 71 nM | 199 nM | COc1ccc(O[C@H]2C[C@@H](c3csc(NC(=O)c4cccn4Cc4ccncc4)n3)C2)nc1 [Compound A309] |  |  |  | 
9 | 319 nM | 10700 nM | 817 nM | 759 nM | > 25000 nM | > 25000 nM |  |  |  |  | CC(C)c1csc(NC(=O)c2cccn2Cc2ccncc2)n1 [Compound A26, N-(4-isopropylthiazol-2-yl)-1-(pyridin-4-ylmethyl)-1H-pyrrole-2-carboxamide] |  |  |  | 

Further lines, the compound ahead of its results:

Row | SMILES | IC50 [1, 7] | IC50 [2, 8] | IC50 [3, 9] | IC50 [4, 10] | EC50 [5] | EC50 [6] | IC50 [1, 11] | IC50 [2, 12] | IC50 [3, 13] | IC50 [4, 14] | IC50 ([1]; read-out: 24 hr Dox Inducible PD1ssGluc 293FRT/TO: Mean IC50; 24 hr, doxycycline-induced, 293FRT/TO cells) | IC50 ([2]; read-out: 24 hr Dox Inducible TNFaFLGluc 293FRT/TO: Mean IC50; 24 hr, doxycycline-induced, 293FRT/TO cells) | IC50 ([3]; read-out: 24 hr Dox Inducible Her3(ss + 4)Gluc 293FRT/TO: Mean IC50; 24 hr, doxycycline-induced, 293FRT/TO cells) | IC50 ([4]; read-out: 24 hr Dox Inducible IL2FLGIuc 293FRT/TO: Mean IC50; 24 hr, doxycycline-induced, 293FRT/TO cells)
10 | O=C(Nc1nc(/C=C/c2ccc3ncccc3c2)cs1)c1cccn1Cc1ccncc1 [Compound A237] | 288 nM | > 25000 nM | 1120 nM | 1870 nM | 18700 nM | > 25000 nM |  |  |  |  |  |  |  | 
11 | O=C(Nc1nc(/C=C/c2ccc(Cl)cc2)cs1)c1cccn1Cc1ccncc1 [Compound A163, N-(4-(4-chlorostyryl)thiazol-2-yl)-1-(pyridin-4-ylmethyl)-1H-pyrrole-2-carboxamide] | 59 nM | 2470 nM | 305 nM | 652 nM | 7610 nM | 24500 nM |  |  |  |  |  |  |  | 
12 | O=C(Nc1nc([C@@H]2CCCC[C@@H]2c2ccccc2)cs1)c1cccn1Cc1ccncc1 [Compound A298] |  |  |  |  | 13500 nM | > 25000 nM | 260 nM | 1660 nM | 482 nM | 450 nM |  |  |  | 
13 | CC(C)(C)[Si](O[C@@H]1C[C@H](c2csc(NC(=O)c3cccn3Cc3ccncc3)n2)N(c2ccccc2)C1)(c1ccccc1)c1ccccc1 [Compound A322] |  |  |  |  | 315 nM | > 25000 nM |  |  |  |  | 3 nM | 14 nM | 9 nM | 9 nM
14 | CC(C)c1csc(CNC(=O)c2cccn2Cc2ccncc2)n1 [Compound A117, N-((4-isopropylthiazol-2-yl)methyl)-1-(pyridin-4-ylmethyl)-1H-pyrrole-2-carboxamide] | > 25000 nM | > 25000 nM | > 25000 nM | > 25000 nM | > 25000 nM | > 25000 nM |  |  |  |  |  |  |  | 
15 | O=C(Nc1nc([C@@H]2CC[C@@H](c3ccccc3)C2)cs1)c1cccn1Cc1ccncc1 (stereo in doubt) [Compound A292, N-(4-((1R,3R)-3-phenylcyclopentyl)thiazol-2-yl)-1-(pyridin-4-ylmethyl)-1H-pyrrole-2-carboxamide] | 211 nM | 2510 nM | 471 nM | 835 nM | 19000 nM | > 25000 nM |  |  |  |  |  |  |  | 
16 | O=C(Nc1nc2nccnc2s1)c1cccn1Cc1ccncc1 [Compound A115] | > 25000 nM | > 25000 nM | > 25000 nM | > 25000 nM | > 25000 nM | > 25000 nM |  |  |  |  |  |  |  | 
17 | CC(C)OC(C)(C)c1csc(NC(=O)c2cccn2Cc2cc(F)nc(F)c2)n1 [Compound A36, 1-((2,6-difluoropyridin-4-yl)methyl)-N-(4-(2-isopropoxypropan-2-yl)thiazol-2-yl)-1H-pyrrole-2-carboxamide] | 698 nM | 21000 nM | 1140 nM | 896 nM | > 25000 nM | > 25000 nM |  |  |  |  |  |  |  | 
18 | CCC(C)c1csc(NC(=O)c2cccn2Cc2ccncc2)n1 (stereo not drawn) [Compound A23] | 290 nM | 5470 nM | 447 nM | 429 nM | > 25000 nM | > 25000 nM |  |  |  |  |  |  |  | 
19 | O=C(Nc1nc(C2CCN(c3ccccc3)CC2)cs1)c1cccn1Cc1ccncc1 [Compound A282] | 324 nM | 4660 nM | 864 nM | 1500 nM | 7080 nM | 12500 nM |  |  |  |  |  |  |  | 
20 | CC(OC(C)(C)c1csc(NC(=O)c2cccn2Cc2ccncc2)n1)c1ccccc1 (stereo not drawn) [Compound A3, N-(4-(2-(1-phenylethoxy)propan-2-yl)thiazol-2-yl)-1-(pyridin-4-ylmethyl)-1H-pyrrole-2-carboxamide] | 36 nM | 580 nM | 99 nM | 144 nM | 2910 nM | > 25000 nM |  |  |  |  |  |  |  | 
21 | CCc1cnccc1Cn1cccc1C(=O)Nc1nc(C(C)(C)OC(C)C)cs1 [Compound A250, 1-((3-ethylpyridin-4-yl)methyl)-N-(4-(2-isopropoxypropan-2-yl)thiazol-2-yl)-1H-pyrrole-2-carboxamide] | 5280 nM | > 25000 nM | 15700 nM | 7400 nM | > 25000 nM | > 25000 nM |  |  |  |  |  |  |  | 
22 | Cc1nc(NC(=O)c2cccn2Cc2ccncc2)sc1C [Compound A58, N-(4,5-dimethylthiazol-2-yl)-1-(pyridin-4-ylmethyl)-1H-pyrrole-2-carboxamide] | 1500 nM | > 25000 nM | 3530 nM | 7060 nM | > 25000 nM | > 25000 nM |  |  |  |  |  |  |  | 
23 | O=C(Nc1nc(/C=C/c2ccc(OC3CC3)cc2)cs1)c1cccn1Cc1ccncc1 [Compound A248, N-(4-(4-cyclopropoxystyryl)thiazol-2-yl)-1-(pyridin-4-ylmethyl)-1H-pyrrole-2-carboxamide] | 38 nM | 1500 nM | 152 nM | 211 nM | > 25000 nM | > 25000 nM |  |  |  |  |  |  |  | 

Source: US20220153732A1, “PROTEIN SECRETION INHIBITORS” (KEZAR LIFE SCIENCES, priority 2019, published 2022)
